In brackets after ≈: the same amount, converted by molar mass.
Assay: Saturation solubilities of the oligopeptide (cilengitide) in the solvent indicated, with pH
Assay type: physicochemical
Conditions: in physiological saline solution
Experimental: In order to determine the saturation solubilities, the oligopeptide was stirred for 1 hour at room temperature in the solvent indicated in each case.
Analogously to Example 1, the effect of addition of β-cyclodextrin ethers (MS 0.63) on the saturation solubilities of the oligopeptides was determined using the example of cilengitide.

solubility at 1 h: ~19 mg/mL (≈ 32.3 mM)
SMILES: CC(C)[C@H]1C(=O)N[C@@H](CCCN=C(N)N)C(=O)NCC(=O)N[C@@H](CC(=O)O)C(=O)N[C@H](Cc2ccccc2)C(=O)N1C [Cilengitide, cyclo-(Arg-Gly-Asp-D-Phe-NMe-Val)]

From US7262165B2, “Aqueous preparation containing oligopeptides and etherified cyclodextrin” (Merck Patent GmbH, priority 2002, dated 2007)
